Source: paper PMC6905855, “Agonist-specific voltage-dependent gating of lysosomal two-pore Na^+ channels” (eLife, 2019)
“And” between values parts separate entries of the source, which are not always exact repeats. Equal values may be shown once.

Columns and labels:
[1] = system: non-transfected HEK293 cells; test: Whole-cell recordings in non-transfected cells; type: cell-based, Homo sapiens
From the text: To our surprise, 5 out of the 23 compounds are well characterized as tri-cyclic anti-depressants (TCAs), which are believed to act on neurotransmitter transporters or voltage-gated Na^+ channels ([Cheng and Bahar, 2019]; [Pancrazio et al., 1998]). We therefore characterized the responses of TPC2 channels to TCAs in detail using electrophysiological methods. We first performed whole-cell recordings in HEK293 cells that were transfected with surface-expressed TPC2 mutant channels (TPC2-L^11L^12-AA; abbreviated as TPC2^LL/AA hereafter). No functional difference was noted between wild-type (WT) TPC2 and TPC2^LL/AA channels in terms of channel permeation and gating properties ([Wang et al., 2012]). To facilitate the detection of TPC2-specific currents, we used symmetric Na^+ solutions in the bath (extracellular) and pipette (cytosolic) solutions ([Wang et al., 2012]).
Whole-cell recordings were performed using pipette electrodes with resistance of 3–5 MΩ. […] All bath solutions were applied via a perfusion system that allowed complete solution exchange within a few seconds. Data were collected using an Axopatch 200A patch clamp amplifier, Digidata 1440, and pClamp 10.2 software (Axon Instruments). […] All experiments were conducted at room temperature (21–23°C), and all recordings were analyzed with pClamp 10.2, and Origin 8.0 (OriginLab, Northampton, MA).

TPC2^LL/AA = system: T1, TPC2^LL/AA; test: Inside-out patch recordings of ITPC2; type: biochemical, human; settings: for time course of LyNa-VA1.2-induced ITPC2: I/o
T1 construct: expressed in transfected cells; host or cells: HEK293

TPC2^N653G = system: T2, TPC2^N653G; test: Whole-endolysosome recordings of ITPC2-N653G; type: biochemical, human; settings: for PX / PNa, K+: TPC2 N653G, agonist-activated current
T2 construct: expressed in transfected cells

[2] = inside out, 200 µM, individual recordings
[3] = inside-out, 200 µM, mean ± S.E.M

Q: How did the “activation of whole-cell currents in non-transfected cells (in words)” value [1] turn out when Nc1nc2ccc(OC(F)(F)F)cc2s1 [LyNA1, Riluzole] was run?
A: The value was “not in non-transfected HEK293 cells”.

Q: What does the source list for CNCCCN1c2ccccc2CCc2ccccc21 [LyNa-VA1.2, Desipramine]?
A: activation of ITPC2 in inside-out patch (in words) (TPC2^LL/AA; 200 µM): evoked; time course of LyNa-VA1.2-induced ITPC2 (TPC2^LL/AA; time 0 s): -0.06927; time course of LyNa-VA1.2-induced ITPC2 (TPC2^LL/AA; time 2 s): -0.0966; time course of LyNa-VA1.2-induced ITPC2 (TPC2^LL/AA; time 4 s): -0.00941; time course of LyNa-VA1.2-induced ITPC2 (TPC2^LL/AA; time 6 s): -8.49E-04; time course of LyNa-VA1.2-induced ITPC2 (TPC2^LL/AA; time 8 s): -0.06407; time course of LyNa-VA1.2-induced ITPC2 (TPC2^LL/AA; time 10 s): -0.08365; time course of LyNa-VA1.2-induced ITPC2 (TPC2^LL/AA; time 12 s): -0.08538; time course of LyNa-VA1.2-induced ITPC2 (TPC2^LL/AA; time 14 s): -0.09864; time course of LyNa-VA1.2-induced ITPC2 (TPC2^LL/AA; time 16 s): -0.09741; time course of LyNa-VA1.2-induced ITPC2 (TPC2^LL/AA; time 18 s): -0.1284; time course of LyNa-VA1.2-induced ITPC2 (TPC2^LL/AA; time 20 s): -0.2599; time course of LyNa-VA1.2-induced ITPC2 (TPC2^LL/AA; time 22 s): -0.3874; time course of LyNa-VA1.2-induced ITPC2 (TPC2^LL/AA; time 24 s): -0.5101; time course of LyNa-VA1.2-induced ITPC2 (TPC2^LL/AA; time 26 s): -0.54; time course of LyNa-VA1.2-induced ITPC2 (TPC2^LL/AA; time 28 s): -0.5044; time course of LyNa-VA1.2-induced ITPC2 (TPC2^LL/AA; time 30 s): -0.6046; time course of LyNa-VA1.2-induced ITPC2 (TPC2^LL/AA; time 32 s): -0.6923; time course of LyNa-VA1.2-induced ITPC2 (TPC2^LL/AA; time 34 s): -0.8892; time course of LyNa-VA1.2-induced ITPC2 (TPC2^LL/AA; time 36 s): -0.754; time course of LyNa-VA1.2-induced ITPC2 (TPC2^LL/AA; time 38 s): -0.8074; time course of LyNa-VA1.2-induced ITPC2 (TPC2^LL/AA; time 40 s): -0.7387; time course of LyNa-VA1.2-induced ITPC2 (TPC2^LL/AA; time 42 s): -0.8794; time course of LyNa-VA1.2-induced ITPC2 (TPC2^LL/AA; time 44 s): -0.9937; time course of LyNa-VA1.2-induced ITPC2 (TPC2^LL/AA; time 46 s): -1; time course of LyNa-VA1.2-induced ITPC2 (TPC2^LL/AA; time 48 s): -0.9555; time course of LyNa-VA1.2-induced ITPC2 (TPC2^LL/AA; time 50 s): -0.9211; time course of LyNa-VA1.2-induced ITPC2 (TPC2^LL/AA; time 52 s): -0.87; Latency of induced ITPC2 (TPC2^LL/AA; [2]): 8 s and 12 s and 14 s; Time constant (τ) of induced ITPC2 (TPC2^LL/AA; [2]): 13.9 s and 16.3 s and 17.9 s and 21.3 s; latency of TPC2 activation (TPC2^LL/AA; [3]): 12 ± 1 s; time constant (τ) of TPC2 activation (TPC2^LL/AA; [3]): 17 ± 2 s; activation of TPC2 N653G (in words) (TPC2^N653G): did not alter the ability of LyNa-VA1.2 to enhance channel activation; PX / PNa, K+ (TPC2^N653G; individual): 0.5576 and 0.6267 and 0.3361 and 0.4961; PX / PNa, K+ (TPC2^N653G; mean): 0.5041
